The numbers were not newly measured in patent US7695734B2, “Extended release tablet formulation containing pramipexole or a pharmaceutically acceptable salt thereof” (Boehringer Ingelheim International GmbH, priority 2004, dated 2010), which cites them from elsewhere.

The conditions of data set [1]: light.
For another data set, the target named is dopamine D2 receptor (Homo sapiens, UniProt P14416).
Chain of dopamine D2 receptor (P14416 whole entry, species assumed): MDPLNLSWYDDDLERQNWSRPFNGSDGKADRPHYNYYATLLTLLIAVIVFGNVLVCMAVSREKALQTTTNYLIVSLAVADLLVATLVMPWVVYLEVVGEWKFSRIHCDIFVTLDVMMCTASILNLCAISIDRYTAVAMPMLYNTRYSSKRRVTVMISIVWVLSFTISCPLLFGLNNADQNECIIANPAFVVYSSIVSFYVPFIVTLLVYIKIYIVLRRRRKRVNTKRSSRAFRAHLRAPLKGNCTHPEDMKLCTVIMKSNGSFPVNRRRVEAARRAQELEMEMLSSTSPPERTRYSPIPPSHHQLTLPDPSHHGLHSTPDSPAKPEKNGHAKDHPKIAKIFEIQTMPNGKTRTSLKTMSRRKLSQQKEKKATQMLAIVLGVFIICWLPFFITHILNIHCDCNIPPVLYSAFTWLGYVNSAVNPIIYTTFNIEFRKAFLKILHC

For the compound `CCCN[C@H]1CCc2nc(N)sc2C1` [Pramipexole, (S)-2-amino-4,5,6,7-tetrahydro-6-(propylamino)benzothiazole], the stability in solution result in data set [1] is recorded as “light sensitive”. In addition, on dopamine D2 receptor (dopamine D2 receptor), the agonist activity result is listed as “full agonist”. Further, the receptor selectivity result at dopamine D2 receptor (dopamine receptors) is “receptor selectivity for the dopamine D2 family of dopamine receptors”.
